The target in assay [1] is T1, kinase Axl (Homo sapiens, UniProt P30530).
T1 construct: purchased Carna 08-107
T1 sequence (P30530 473-894 limits assumed): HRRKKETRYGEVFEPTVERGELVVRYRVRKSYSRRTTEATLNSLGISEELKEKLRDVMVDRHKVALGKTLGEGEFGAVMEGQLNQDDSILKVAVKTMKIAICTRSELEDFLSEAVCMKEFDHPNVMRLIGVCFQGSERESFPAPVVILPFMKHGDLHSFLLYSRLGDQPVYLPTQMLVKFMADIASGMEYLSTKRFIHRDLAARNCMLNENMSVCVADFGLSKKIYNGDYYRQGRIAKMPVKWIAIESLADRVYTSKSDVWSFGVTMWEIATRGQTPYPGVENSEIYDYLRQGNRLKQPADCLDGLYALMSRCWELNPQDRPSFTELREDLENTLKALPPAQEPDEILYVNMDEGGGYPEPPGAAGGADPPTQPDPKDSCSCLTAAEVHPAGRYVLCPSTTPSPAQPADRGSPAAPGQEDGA
Put plainly: Mobility shift assay, inhibitory activity against kinase Axl. The assay is classed as biochemical. To be noted: ATP at Km (81 μM), average of two independent experiments. The procedure: (§1) In this test, mobility shift assay was used to test the inhibitory activity of compounds when ATP concentrations correspond to the Km of the kinases.
(§2) The concentration of test compound was 10-fold diluted from an initial concentration of 10 μM. The test result (IC50) was the average of two independent experiments.
(§3) For example, a compound at an initial concentration of 10 μM was adjusted to 500 μM with 100% DMSO, then serially diluted for 10 concentrations, and then subjected to 10-fold dilution with the buffer to prepare a diluted compound intermediate containing 10% DMSO, 5 μL of which was transferred to the 384-well plate.
(§4) 10 μL of the two enzyme solutions each was added to the 384-well plate and co-incubated with the compound for 10-15 min at room temperature.
(§5) 10 μL of the diluted substrate was added to the 384-well plate to initiate the reaction, which lasts for 1 h at 28° C.
(§6) 5) The conversion rate was read by Caliper Reader (Perkin Elmer) and the inhibition rate was calculated as the average of two tests.
(§7) 6) IC50 values were fitted with XL-fit software.

The target in assay [2] is T2, kinase c-MET (Homo sapiens, UniProt P08581).
T2 construct: purchased Carna 08-151
Put plainly: Mobility shift assay, inhibitory activity against kinase c-MET. To be noted: ATP at Km (35 μM), average of two independent experiments. Format: biochemical. On the procedure: as §1, §2, §3, §4, §5, §6, §7

In assay [3] the test system is EBC-1 cells. The assay is described as follows: EBC-1 cell proliferation, CellTiter-Glo Luminescent Cell Viability Assay. The assay is classed as cell-based. To be noted: Homo sapiens, 72 h incubation, read-out: IC50 (nM) against EBC-1 cells. The procedure: Test Example 3: Inhibitory Activity of Compounds disclosed herein against EBC-1 Cells
Test method: the inhibitory activity of the compounds against EBC-1 cell proliferation was evaluated using CellTiter-Glo® Luminescent Cell Viability Assay Kit (Promega).
Test procedures: when thawing EBC-1 cells, the cell cryopreservation tube was shaken rapidly in a water bath at 37° C. to thaw the cells in 1 min. The cell suspension after thawing was mixed with RPMI1640 culture medium containing 10% FBS and centrifuged for 5 min at 1000 rpm, and the supernatant was discarded. The cell pellet was suspended in 5 mL of complete culture medium. The suspension was placed in a cell culture flask with a bottom area of 25 cm^2, and cultured in a cell incubator at 37° C./95% humidity/5% CO2. Cell passage was performed when cell confluence reached about 80%. When the cells were passaged, the original cell suspension was directly made uniform by pipetting. 1/6 of the cell suspension was kept, added with 5 mL of new complete culture medium and then made uniform by pipetting. The cell culture flask was then placed in a cell incubator for further culturing. Cell plating was performed when the cell confluence reached about 80% again. With reference to the method for cell passage, 1/6 cell suspension was kept for further culturing when the cells were plated, and the remaining 5/6 of cell suspension was placed in a 15 mL centrifuge tube. Cell viability was detected by trypan blue exclusion using an IC1000 cell counter (Countstar) to ensure that cell viability was above 90%. Cell suspension at a density of 3.33×10^4 viable cells/mL was prepared using complete culture medium, and 90 μL of the cell suspension was added into 96-well cell culture plates, so that the cell density in the cell culture plates (day 0 plate and test compound plate) was 3000 viable cells/well. A control group that contains no cell or compound but only complete culture medium and a control group that contains no compound but cells were set. The cell plates were incubated overnight in a cell incubator. […] 10 μL of the above solution was added into a corresponding cell culture plate to ensure that the initial concentration of the compound was 10 μM, the dilution factor of adjacent concentration was 3.16, and the DMSO content in the cell culture plate was 0.1%. The cell plates were then incubated in the cell incubator for 72 h. During detection, CellTiter-Glo reagent (namely CellTiter-Glo® […] cell viability test reagent, Promega, Cat. No. G7572, Lot. No. 0000310975) was melted, and the cell plate was equilibrated at room temperature for 30 min. The cell plate was added with the CellTiter-Glo reagent at 100 μL per well, and then shaken on a QB-9001 microporous quick shaker (Kylin-Bell) for 5 min to fully lyse the cells. The cell plate was left to stand at room temperature for 20 min to stabilize luminescence signals, and the luminescence value of each well was scanned by a Spectramax M3 multi-functional microplate reader (Molecular Devices) at full wavelength.
Test samples: example compounds of the present invention and cabozantinib (positive control compound).
Data analysis: cell viability was calculated for compounds at various concentrations using the following formula:
Cell viability(%)=(Lumtest compound−Lumculture solution control)/(Lumcell control−Lumculture solution control)×100%,
where Lum refers to the luminescence value of each well of the test compound plate read by the multi-functional microplate reader.
The data were analyzed using GraphPad Prism 7.0 software, fitted with nonlinear S-curve regression to give dose-response curves, and IC50 values were calculated therefrom.

Assay [4] concerns the target T3, tyrosine kinase Mer (Homo sapiens, UniProt Q12866).
T3 construct: purchased Carna 08-108
T3 sequence (Q12866 528-999 limits assumed): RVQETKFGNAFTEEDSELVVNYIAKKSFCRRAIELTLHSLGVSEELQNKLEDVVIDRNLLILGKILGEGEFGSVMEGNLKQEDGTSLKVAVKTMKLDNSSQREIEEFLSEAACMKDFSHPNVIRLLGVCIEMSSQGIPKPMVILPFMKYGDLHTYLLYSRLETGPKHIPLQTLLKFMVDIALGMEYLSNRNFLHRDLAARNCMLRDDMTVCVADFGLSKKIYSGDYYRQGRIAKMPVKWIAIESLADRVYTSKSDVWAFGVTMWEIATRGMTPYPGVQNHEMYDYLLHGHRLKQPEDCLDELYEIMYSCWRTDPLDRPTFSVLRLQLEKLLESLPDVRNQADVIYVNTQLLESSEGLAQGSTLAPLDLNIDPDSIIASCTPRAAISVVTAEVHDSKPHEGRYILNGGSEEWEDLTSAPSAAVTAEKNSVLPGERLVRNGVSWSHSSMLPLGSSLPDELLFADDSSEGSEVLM
Put plainly: HTRF assay, inhibitory activity against tyrosine kinase Mer. To be noted: ATP at Km (30 μM), two duplicate wells. The assay is classed as biochemical. On the procedure: (§8) Test Example 2: Evaluation of Inhibitory Activity (IC50) of Compounds disclosed herein against Tyrosine Kinases Mer and Tyro3
(§9) In this test, HTRF method was used to test the inhibitory activity of compounds when ATP concentrations correspond to the Km of the kinases. The control substance was RXDX-106. The concentration of test compound was 3-fold diluted from an initial concentration of 10 μM, and two duplicate wells were set.
(§10) Kinase Mer (Carna, Cat. No. 08-108, Lot. No. 14CBS-0421H); Tyro3 (Carna, Cat. No. 08-109, Lot. No. 08CBS-1186H); HTRF kinase-TK kit (Cisbio, Cat. No. 62TK0PEC), the kit comprising: biotin-TK substrate lyophilized powder (Cisbio, Cat. No. 61TK0BLC, Lot. No. 07A), streptavidin-XL665 (Cisbio, Cat. No. 610SAXLG, Lot. No. 126A), TK antibody-cryptate (Cisbio, Cat. No. 610SAXLG, Lot. No. 04A), and detection buffer (including EDTA) (Cisbio, Cat. No. 62TK0PEC, Lot. No. 12A); ATP (Sigma, Cat. No. A7699-5G, CAS No. 34369-07-8, Lot. No. SLBQ6014V); DMSO (Sigma, Cat. No. D5879-1L, Lot. No. SHBH9944); HEPES (Sigma, Cat. No. V900477-500G, CAS No. 7365-45-9, Lot. No. WXBC4716V); MgCl2 (Sigma, Cat. No. 208337-1KG, Lot. No. MKBX9508V); EGTA (Sigma, Cat. No. E3889-100g, CAS 67-42-5, […], Lot. No. SLBG8546V); NP-40 (Beijing Dingguo, Cat. No. DH218, Lot. No. 36R00160); DTT (Sigma, Cat. No. D0632-25g, CAS No. 3483-12-3, Lot. No. SLBF3964V); compound plate (Labcyte, Cat. No. LP0200, Lot. No. 0006386836); assay plate (Greiner, Cat. No. 784075, Lot. No. E16123HM); control substance RXDX-106 (prepared according to the method disclosed in patent WO2013074633).
(§11) 1) Preparation of a buffer: 50 mM HEPES, 10 mM MgCl2, 1 mM EGTA, 0.01% NP-40, 2 mM DTT.
(§12) 2) Preparation of control substance and test samples: RXDX-106 and the compounds disclosed herein were each dissolved in DMSO to 10 mM and then diluted to 1 mM or an appropriate concentration with DMSO, and then serial double dilution was performed using BRAVO (Agilent). 100 nL of each was transferred from a compound plate (Labcyte-LP0200) to an assay plate (Greiner-784075) using ECHO 555 (Labcyte). The final concentration of DMSO was 1%.
(§13) 3) Mer and Tyro3 were each diluted to 0.5 nM and 1.2 nM with the detection buffer (Cisbio, Cat. No. 62TK0PEC, Lot. No. 12A). 5 μL of each was added to a 384-well plate and incubated with the compounds disclosed herein for 30 min at 22-25° C. Final concentrations of Mer and Tyro3 were 0.25 nM and 0.6 nM, respectively.
(§14) 4) Biotin-TK substrate and ATP were each diluted to a concentration twice the final concentration with 1× kinase buffer made up of HEPES, NaN3, BSA and orthovanadate. 5 μL of the mixture of substrate and ATP was added to the 384-well plate to initiate the reaction, which lasts for 1 h at 22-25° C.
(§15) 5) Streptavidin-XL665 and TK antibody-cryptate were diluted to 250 nM and 0.5 nM, respectively, with the detection buffer. […] of each of the two solutions was added to the 384-well plate to initiate the reaction, which lasts for 1 h at 22-25° C. The final concentrations of streptavidin-XL665 and TK antibody-cryptate were 125 nM and 0.25 nM, respectively.
(§16) 6) The fluorescence intensities at 665 nm and 615 nm were read with an Envision Reader (PerkinElmer) .
(§17) 7) IC50 values of the compounds were fitted with XL-fit software.
In general terms: In TR-FRET formats the signal depends on donor and acceptor labels being close together.

Assay [5] has as its target T4, tyrosine kinase Tyro3 (Homo sapiens, UniProt Q06418).
T4 construct: purchased Carna 08-109
T4 sequence (Q06418 453-890 limits assumed): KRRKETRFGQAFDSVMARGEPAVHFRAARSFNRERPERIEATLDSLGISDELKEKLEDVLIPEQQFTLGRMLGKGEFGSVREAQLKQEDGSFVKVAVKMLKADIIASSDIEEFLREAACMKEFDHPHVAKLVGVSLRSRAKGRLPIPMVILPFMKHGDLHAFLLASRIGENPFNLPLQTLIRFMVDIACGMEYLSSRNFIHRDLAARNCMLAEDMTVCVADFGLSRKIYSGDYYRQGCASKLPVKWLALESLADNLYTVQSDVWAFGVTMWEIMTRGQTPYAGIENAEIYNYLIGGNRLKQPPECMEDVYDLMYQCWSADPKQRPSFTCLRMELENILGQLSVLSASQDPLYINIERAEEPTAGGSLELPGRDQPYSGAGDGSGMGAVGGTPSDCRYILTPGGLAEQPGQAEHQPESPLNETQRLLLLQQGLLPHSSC
Put plainly: HTRF assay, inhibitory activity against tyrosine kinase Tyro3. Format: biochemical. To be noted: ATP at Km (50 μM), two duplicate wells. The procedure:
as §8, §9, §10, §11, §12, §13, §14, §15, §16, §17

T2 sequence (P08581 956-1390 limits assumed): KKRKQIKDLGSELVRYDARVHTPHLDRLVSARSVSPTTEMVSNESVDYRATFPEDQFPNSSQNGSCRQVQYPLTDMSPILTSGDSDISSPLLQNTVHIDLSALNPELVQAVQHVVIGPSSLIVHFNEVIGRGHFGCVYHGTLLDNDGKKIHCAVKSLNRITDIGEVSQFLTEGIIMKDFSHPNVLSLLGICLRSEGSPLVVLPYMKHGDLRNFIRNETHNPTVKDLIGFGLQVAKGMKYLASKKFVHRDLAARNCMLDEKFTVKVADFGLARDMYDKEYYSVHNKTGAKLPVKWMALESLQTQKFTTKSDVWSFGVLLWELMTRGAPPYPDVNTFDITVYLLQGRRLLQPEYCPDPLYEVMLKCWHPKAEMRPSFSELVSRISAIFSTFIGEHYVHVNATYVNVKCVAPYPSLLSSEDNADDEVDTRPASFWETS

For the compound `CCn1cc(-c2cnc(N)c(-c3ccc(NC(=O)c4cc(C)c(C#N)n(-c5ccc(F)cc5)c4=O)cc3F)c2)cn1` [Example 18, N-(4-(2-amino-5-(1-ethyl-1H-pyrazol-4-yl)pyridin-3-yl)-3-fluorophenyl)-6-cyano-1-(4-fluorophenyl)-5-methyl-2-oxo-1,2-dihydropyridine-3-carboxamide], the IC50 (as a rule, the point on the concentration scale where inhibition reaches its midpoint) in assay [1] came out at 12 nM; in assay [2], 12 nM; in assay [3], 298 nM.
Regarding `CC(C)n1cc(C(=O)Nc2ccc(-c3cc(-c4cnn(C5CCNCC5)c4)cnc3N)c(F)c2)c(=O)n(-c2ccc(F)cc2)c1=O` [Example 20, N-(4-(2-amino-5-(1-(piperidin-4-yl)-1H-pyrazol-4-yl)pyridin-3-yl)-3-fluorophenyl)-3-(4-fluorophenyl)-1-isopropyl-2,4-dioxo-1,2,3,4-tetrahydropyrimidine-5-carboxamide], the IC50 is 5.5 nM in assay [1], 14 nM in assay [2] and 106 nM in assay [3].
`COc1cc2nccc(Oc3ccc(NC(=O)c4cc(C)c(CN)n(-c5ccc(F)cc5)c4=O)cc3F)c2cc1OC` [Example 26, 6-(aminomethyl)-N-(4-((6,7-dimethoxyquinolin-4-yl)oxy)-3-fluorophenyl)-1-(4-fluorophenyl)-5-methyl-2-oxo-1,2-dihydro-1,2-dihydropyridine-3-carboxamide]: the IC50 was 19 nM in assay [1], 19 nM in assay [2] and 132 nM in assay [3].
As for `COc1cc2nccc(Oc3ccc(NC(=O)c4cn(C(C)C)c(=O)n(-c5ccc(F)cc5)c4=O)cc3F)c2cc1OC` [RXDX-106, reference compound], the IC50 is 6.4 nM in assay [4] and 3.3 nM in assay [5].
